The values that follow come from patent US9309224B2 (Deciphera Pharmaceuticals, LLC, priority 2013, dated 2016).

The structures appear in SMILES notation.

One experiment concerns osteoclast precursors. Put plainly: Osteoclast tartrate-resistant acid phosphatase assay. The format is cell-based. To be noted: Osteoclast; 7-14 days, RANKL and M-CSF.
For experiment [1], the target named is T1, phospho-FMS in THP-1 cells (Homo sapiens, UniProt P07333).
T1 construct: endogenous in cells; host or cells: THP-1 (ATCC TIB-202)
In words: Phospho-FMS ELISA assay in THP-1 cells. To be noted: 4 hours compound, M-CSF stimulated; read-out: pFMS inhibition in THP-1 cells. It counts as cell-based.

Experiment [2] deals with T2, unphosphorylated c-FMS kinase (uFMS, Seq. ID no. 1) (Homo sapiens, UniProt P07333).
T2 construct: purchased Millipore
T2 sequence (P07333 538-972): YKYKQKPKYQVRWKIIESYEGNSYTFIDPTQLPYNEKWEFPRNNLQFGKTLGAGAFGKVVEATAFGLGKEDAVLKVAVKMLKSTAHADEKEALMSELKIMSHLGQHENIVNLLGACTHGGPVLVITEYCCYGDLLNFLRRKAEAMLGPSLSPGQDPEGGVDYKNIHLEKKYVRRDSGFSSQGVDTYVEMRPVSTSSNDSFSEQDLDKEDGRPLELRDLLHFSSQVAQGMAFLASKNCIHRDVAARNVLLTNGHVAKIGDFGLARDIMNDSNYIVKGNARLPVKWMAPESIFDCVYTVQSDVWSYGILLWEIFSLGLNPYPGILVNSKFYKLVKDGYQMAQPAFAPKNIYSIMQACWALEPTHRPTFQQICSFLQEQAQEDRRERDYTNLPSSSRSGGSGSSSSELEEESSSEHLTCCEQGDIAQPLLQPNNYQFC
In words: uFMS kinase assay (pyruvate kinase/lactate dehydrogenase coupled). It counts as biochemical. The note with it: ATP 500 μM.

For experiment [3], the target named is T3, unphosphorylated PDGFRβ kinase (uPDGFRβ, Seq. ID No. 3) (Homo sapiens, UniProt P09619).
T3 construct: purchased DeCode
Put plainly: Unphosphorylated PDGFRβ kinase assay (pyruvate kinase/lactate dehydrogenase coupled). The format is biochemical. To be noted: ATP 500 μM. From the text:
Unphosyhorylated PDGFRβ (uPDGFRβkinase (Seq. ID No. 3) assay

Another experiment deals with M-NFS-60 cells. Put plainly: M-NFS-60 cell proliferation assay. It counts as cell-based. The note with it: 67 h incubation, resazurin.
Experiment [4] has as its target T4, unphosphorylated c-KIT kinase (uKIT, Seq. ID no. 2) (Homo sapiens, UniProt P10721).
T4 construct: uKit with N-terminal GST fusion used for
In words: uKit kinase assay (pyruvate kinase/lactate dehydrogenase coupled). It counts as biochemical. The note with it: ATP 2000 μM.
Method: In this assay, the oxidation of NADH (thus the decrease at A340 nm) was continuously monitored spectrophometrically. […] The inhibition reaction was started by mixing serial diluted test compound with the above reaction mixture. The absorption at 340 nm was monitored continuously for 4 hours at 30° C. on Synergy 2 plate reader (BioTech).

T4 sequence (P10721 with tags, fused parts or gaps): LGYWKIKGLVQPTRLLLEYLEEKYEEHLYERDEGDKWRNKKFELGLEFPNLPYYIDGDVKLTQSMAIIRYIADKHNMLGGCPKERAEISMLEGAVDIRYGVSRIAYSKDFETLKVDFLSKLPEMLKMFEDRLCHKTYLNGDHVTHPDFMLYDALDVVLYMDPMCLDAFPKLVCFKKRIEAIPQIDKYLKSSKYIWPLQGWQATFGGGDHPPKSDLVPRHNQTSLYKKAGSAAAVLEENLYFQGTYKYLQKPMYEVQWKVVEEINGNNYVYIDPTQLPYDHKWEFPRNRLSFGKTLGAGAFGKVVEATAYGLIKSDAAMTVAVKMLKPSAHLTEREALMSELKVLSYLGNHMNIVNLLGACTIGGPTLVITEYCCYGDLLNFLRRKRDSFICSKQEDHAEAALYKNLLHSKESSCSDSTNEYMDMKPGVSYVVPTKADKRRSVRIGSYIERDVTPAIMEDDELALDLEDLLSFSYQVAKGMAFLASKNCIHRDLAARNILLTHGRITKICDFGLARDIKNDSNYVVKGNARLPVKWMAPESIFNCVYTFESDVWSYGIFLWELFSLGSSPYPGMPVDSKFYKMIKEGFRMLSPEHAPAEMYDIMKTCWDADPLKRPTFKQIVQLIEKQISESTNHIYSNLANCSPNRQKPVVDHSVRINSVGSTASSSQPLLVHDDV
T1 sequence (P07333 20-972): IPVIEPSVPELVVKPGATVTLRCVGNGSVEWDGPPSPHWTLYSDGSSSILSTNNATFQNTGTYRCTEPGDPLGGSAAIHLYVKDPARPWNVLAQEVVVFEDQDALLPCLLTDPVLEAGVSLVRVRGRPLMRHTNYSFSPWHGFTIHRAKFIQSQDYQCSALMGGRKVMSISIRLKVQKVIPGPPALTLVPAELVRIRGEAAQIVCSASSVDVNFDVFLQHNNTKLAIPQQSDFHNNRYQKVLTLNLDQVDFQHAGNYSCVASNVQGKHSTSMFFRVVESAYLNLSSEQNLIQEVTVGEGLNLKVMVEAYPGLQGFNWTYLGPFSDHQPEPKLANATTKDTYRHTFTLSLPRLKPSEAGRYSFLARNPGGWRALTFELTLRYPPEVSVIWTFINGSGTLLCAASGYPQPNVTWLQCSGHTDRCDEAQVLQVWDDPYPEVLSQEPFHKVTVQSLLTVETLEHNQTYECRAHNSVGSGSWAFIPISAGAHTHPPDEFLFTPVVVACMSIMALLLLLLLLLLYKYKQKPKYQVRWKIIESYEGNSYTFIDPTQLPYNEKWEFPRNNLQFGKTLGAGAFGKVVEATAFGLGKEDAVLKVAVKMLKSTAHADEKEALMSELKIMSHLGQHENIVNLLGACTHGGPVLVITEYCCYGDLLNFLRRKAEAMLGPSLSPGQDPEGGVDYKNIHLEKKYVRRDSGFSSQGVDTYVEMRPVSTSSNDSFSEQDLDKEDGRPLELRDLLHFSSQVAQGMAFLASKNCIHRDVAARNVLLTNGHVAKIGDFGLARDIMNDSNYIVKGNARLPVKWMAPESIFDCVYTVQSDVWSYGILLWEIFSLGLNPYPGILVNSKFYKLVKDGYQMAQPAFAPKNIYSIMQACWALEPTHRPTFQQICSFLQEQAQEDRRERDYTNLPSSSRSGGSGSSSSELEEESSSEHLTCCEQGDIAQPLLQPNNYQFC
T3 sequence (P09619 557-1105): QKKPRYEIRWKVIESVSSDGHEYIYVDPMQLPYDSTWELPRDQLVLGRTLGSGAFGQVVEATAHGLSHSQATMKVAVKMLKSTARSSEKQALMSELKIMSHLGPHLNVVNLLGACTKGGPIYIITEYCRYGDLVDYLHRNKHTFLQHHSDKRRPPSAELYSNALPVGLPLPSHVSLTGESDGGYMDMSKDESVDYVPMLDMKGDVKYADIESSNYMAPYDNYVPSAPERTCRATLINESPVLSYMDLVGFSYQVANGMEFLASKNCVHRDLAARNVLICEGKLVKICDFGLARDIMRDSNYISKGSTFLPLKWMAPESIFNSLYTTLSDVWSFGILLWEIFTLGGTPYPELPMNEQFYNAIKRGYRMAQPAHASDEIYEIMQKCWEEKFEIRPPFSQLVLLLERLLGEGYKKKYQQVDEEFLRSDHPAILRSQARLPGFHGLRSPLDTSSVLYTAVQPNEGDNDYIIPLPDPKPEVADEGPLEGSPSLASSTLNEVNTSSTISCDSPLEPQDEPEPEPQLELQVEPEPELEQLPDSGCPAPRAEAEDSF
Method for M-NFS-60 cells: M-NFS-60 Cell Proliferation Assay A serial dilution of test compound was dispensed into a 384-well black clear bottom plate (Corning, Corning, N.Y.). Two thousand five hundred cells were added per well in 50 μL complete growth medium. […] IC50 values were calculated from a series of percent inhibition values determined at a range of inhibitor concentrations using software routines as implemented in the GraphPad Prism software package.

For `CC(=O)Nc1cc(Oc2ccc(NC(=O)NC(=O)C3(C)CC3)nc2)ccn1` [Example 19, N-((5-((2-acetamidopyridin-4-yl)oxy)pyridin-2-yl)carbamoyl)-1-methylcyclopropanecarboxamide], the IC50 in the experiment with osteoclast precursors is under 10 nM; in experiment [1], 10 to 100 nM; in experiment [2], 10 to 100 nM; in experiment [3], 100 to 1000 nM; in the experiment on M-NFS-60 cells, 10 to 100 nM; in experiment [4] it was 100 to 1000 nM.

In the case of `CC(C)C(=O)NC(=O)Nc1ccc(Oc2ccnc(NC(=O)N3CCN(C)CC3)c2)cn1` [Example 66, N-(4-((6-(3-isobutyrylureido)pyridin-3-yl)oxy)pyridin-2-yl)-4-methylpiperazine-1-carboxamide], the IC50 was under 10 nM in the experiment on osteoclast precursors; under 10 nM in experiment [1]; under 10 nM in experiment [2]; 100 to 1000 nM in experiment [3]; under 10 nM with M-NFS-60 cells; over 1000 nM in experiment [4].

Take `CC1(C(=O)NC(=O)Nc2ccc(Oc3ccnc(NC(=O)C4CC4)c3)cn2)CC1` [Example 30, N-((5-((2-(cyclopropanecarboxamido)pyridin-4-yl)oxy)pyridin-2-yl)carbamoyl)-1-methylcyclopropanecarboxamide]: the IC50 is under 10 nM in the experiment with osteoclast precursors; under 10 nM in experiment [1]; under 10 nM in experiment [2]; 100 to 1000 nM in experiment [3]; 10 to 100 nM in the experiment with M-NFS-60 cells; 10 to 100 nM in experiment [4].

For `CC(=O)Nc1cc(Oc2cnc(NC(=O)NC(=O)C(C)(C)C)cc2C)ccn1` [Example 42, N-((5-((2-acetamidopyridin-4-yl)oxy)-4-methylpyridin-2-yl)carbamoyl)pivalamide], the IC50 was under 10 nM in the experiment with osteoclast precursors; under 10 nM in experiment [1]; under 10 nM in experiment [2]; 10 to 100 nM in experiment [3]; under 10 nM with M-NFS-60 cells; 100 to 1000 nM in experiment [4].

As for `CNC(=O)c1cc(Oc2ccc(NC(=O)NC(=O)C3(C)CCOCC3)nc2)ccn1` [Example 70, N-methyl-4-((6-(3-(4-methyltetrahydro-2H-pyran-4-carbonyl)ureido)pyridin-3-yl)oxy)picolinamide], the IC50 in the experiment on osteoclast precursors is 10 to 100 nM; in experiment [1], 10 to 100 nM; in experiment [2] it was 100 to 1000 nM; in experiment [3], over 1000 nM; in the experiment with M-NFS-60 cells, 100 to 1000 nM; in experiment [4] it was over 1000 nM.

As for `CNC(=O)c1cc(Oc2ccc(NC(=O)NC(=O)C3(OC)CCCC3)nc2)ccn1` [Example 64, 4-((6-(3-(1-methoxycyclopentanecarbonyl)ureido)pyridin-3-yl)oxy)-N-methylpicolinamide], the IC50 with osteoclast precursors was 10 to 100 nM; in experiment [1] it was under 10 nM; in experiment [2], under 10 nM; in experiment [3], over 1000 nM; in the experiment on M-NFS-60 cells it was 10 to 100 nM; in experiment [4], 100 to 1000 nM.

With `CN(C)[C@@H]1CCN(C(=O)Nc2cc(Oc3ccc(NC(=O)NC(=O)C(C)(C)C)nc3)ccn2)C1` [Example 68, (R)-3-(dimethylamino)-N-(4-((6-(3-pivaloylureido)pyridin-3-yl)oxy)pyridin-2-yl)pyrrolidine-1-carboxamide], the IC50 with osteoclast precursors is under 10 nM; in experiment [1], under 10 nM; in experiment [2], under 10 nM; in experiment [3], 10 to 100 nM; with M-NFS-60 cells, under 10 nM; in experiment [4] it was over 1000 nM.

Turning to `COC(C)(C)C(=O)NC(=O)Nc1ccc(Oc2ccnc(NC(C)=O)c2)c(C)n1` [Example 20, N-((5-((2-acetamidopyridin-4-yl)oxy)-6-methylpyridin-2-yl)carbamoyl)-2-methoxy-2-methylpropanamide], the IC50 with osteoclast precursors was 10 to 100 nM; in experiment [1], under 10 nM; in experiment [2], 10 to 100 nM; in experiment [3] it was over 1000 nM; in the experiment with M-NFS-60 cells, under 10 nM; in experiment [4], over 1000 nM.

For `CNC(=O)c1cc(Oc2ccc(NC(=O)NC(=O)C(C)(C)OC)nc2)ccn1` [Example 58, 4-((6-(3-(2-methoxy-2-methylpropanoyl)ureido)pyridin-3-yl)oxy)-N-methylpicolinamide], the IC50 in the experiment on osteoclast precursors is 10 to 100 nM; in experiment [1], under 10 nM; in experiment [2], 10 to 100 nM; in experiment [3] it was over 1000 nM; in the experiment on M-NFS-60 cells, 10 to 100 nM; in experiment [4], over 1000 nM.

Consider `CCC(=O)Nc1cc(Oc2ccc(NC(=O)NC(=O)C3(C)CC3)nc2)ccn1` [Example 36, 1-methyl-N-((5-((2-propionamidopyridin-4-yl)oxy)pyridin-2-yl)carbamoyl)cyclopropanecarboxamide], for which the IC50 in the experiment with osteoclast precursors was under 10 nM; in experiment [1], 10 to 100 nM; in experiment [2], under 10 nM; in experiment [3], 10 to 100 nM; in the experiment on M-NFS-60 cells, 10 to 100 nM; in experiment [4], 100 to 1000 nM.

With `CC(=O)Nc1cc(Oc2ccc(NC(=O)NC(=O)C(C)(C)C)nc2C)ccn1` [Example 9, N-((5-((2-acetamidopyridin-4-yl)oxy)-6-methylpyridin-2-yl)carbamoyl)pivalamide], the IC50 in the experiment with osteoclast precursors was under 10 nM; in experiment [1], under 10 nM; in experiment [2], under 10 nM; in experiment [3], over 1000 nM; in the experiment on M-NFS-60 cells it was under 10 nM; in experiment [4] it was over 1000 nM.

Consider `CCC(=O)Nc1cc(Oc2ccc(NC(=O)NC(=O)C(C)(C)C)nc2C)ccn1` [Example 12, N-((6-methyl-5-((2-propionamidopyridin-4-yl)oxy)pyridin-2-yl)carbamoyl)pivalamide], for which the IC50 was 10 to 100 nM in the experiment with osteoclast precursors; 10 to 100 nM in experiment [1]; under 10 nM in experiment [2]; 100 to 1000 nM in experiment [3]; under 10 nM in the experiment on M-NFS-60 cells; over 1000 nM in experiment [4].

For the compound `CCC(=O)Nc1cc(Oc2ccc(NC(=O)NC(=O)C(C)(C)OC)nc2)ccn1` [Example 37, 2-methoxy-2-methyl-N-((5-((2-propionamidopyridin-4-yl)oxy)pyridin-2-yl)carbamoyl)propanamide], the IC50 in the experiment on osteoclast precursors is 10 to 100 nM; in experiment [1], under 10 nM; in experiment [2], under 10 nM; in experiment [3], 100 to 1000 nM; with M-NFS-60 cells, 10 to 100 nM; in experiment [4], over 1000 nM.

In the case of `CC(=O)Nc1cc(Oc2ccc(NC(=O)NC(=O)C3CCCC3)nc2)ccn1` [Example 2, N-((5-((2-acetamidopyridin-4-yl)oxy)pyridin-2-yl)carbamoyl)cyclopentanecarboxamide], the IC50 in the experiment on osteoclast precursors is under 10 nM; in experiment [1], 10 to 100 nM; in experiment [2], under 10 nM; in experiment [3] it was under 10 nM; in the experiment on M-NFS-60 cells it was 10 to 100 nM; in experiment [4], 100 to 1000 nM.

`CN(C)C1CN(C(=O)Nc2cc(Oc3ccc(NC(=O)NC(=O)C(C)(C)C)nc3)ccn2)C1` [Example 77, 3-(dimethylamino)-N-(4-((6-(3-pivaloylureido)pyridin-3-yl)oxy)pyridin-2-yl)azetidine-1-carboxamide]: the IC50 with osteoclast precursors was under 10 nM; in experiment [1] it was 10 to 100 nM; in experiment [2], under 10 nM; in experiment [3] it was 10 to 100 nM; in the experiment on M-NFS-60 cells, under 10 nM; in experiment [4] it was 100 to 1000 nM.

With `CN(C)[C@H]1CCN(C(=O)Nc2cc(Oc3ccc(NC(=O)NC(=O)C(C)(C)C)nc3)ccn2)C1` [Example 47, (S)-3-(dimethylamino)-N-(4-((6-(3-pivaloylureido)pyridin-3-yl)oxy)pyridin-2-yl)pyrrolidine-1-carboxamide], the IC50 with osteoclast precursors is under 10 nM; in experiment [1] it was under 10 nM; in experiment [2], under 10 nM; in experiment [3], 10 to 100 nM; in the experiment on M-NFS-60 cells, under 10 nM; in experiment [4], over 1000 nM.

As to `CCN1CCN(C(=O)Nc2cc(Oc3ccc(NC(=O)NC(=O)C(C)(C)C)nc3)ccn2)CC1` [Example 80, 4-ethyl-N-(4-((6-(3-pivaloylureido)pyridin-3-yl)oxy)pyridin-2-yl)piperazine-1-carboxamide], the IC50 in the experiment with osteoclast precursors was under 10 nM; in experiment [1] it was under 10 nM; in experiment [2], under 10 nM; in experiment [3], 100 to 1000 nM; in the experiment with M-NFS-60 cells it was 10 to 100 nM; in experiment [4], over 1000 nM.

For the compound `COC1(C(=O)NC(=O)Nc2ccc(Oc3ccnc(NC(C)=O)c3)cn2)CCCC1` [Example 67, N-((5-((2-acetamidopyridin-4-yl)oxy)pyridin-2-yl)carbamoyl)-1-methoxycyclopentanecarboxamide], the IC50 in the experiment on osteoclast precursors was under 10 nM; in experiment [1] it was under 10 nM; in experiment [2] it was 10 to 100 nM; in experiment [3], 10 to 100 nM; in the experiment on M-NFS-60 cells, under 10 nM; in experiment [4], 100 to 1000 nM.
